Values quoted from earlier work, collected in patent US7702465B2 (priority 2002, dated 2010).

Experiments:
HLA A*0201 [1] = target: HLA A*0201 (Homo sapiens, UniProt P04439, /I218V/L300P/L318F/N151K/N90K/P208A/P217A/Q86G/Q94H/R138H/R169H/T345S); conditions: binding to HLA A*0201; nonameric peptides from HPV E6 and E7; literature data of Rudolf et al. (2001)
HLA A*0201 [2] = target: HLA A*0201 (Homo sapiens, UniProt P04439, D140Y/D185E/D98H/E176V/E277Q/G131W/G231S/I119V/I121R/I166T/I218V/L300P/L318F/N151K/N90K/P208A/P217A/Q86G/Q94H/R138H/R169H/T345S); conditions: binding peptides = the 15 of 247 with IC50 3 to 943 nM (Rudolf et al. 2001)

Row | Sequence | IC50 (HLA A*0201 [1]) [nM] | classification as binder to HLA A*0201 (HLA A*0201 [2])
1 | FAFKDLFVV | 3 | –
2 | FKDLFVVYR | 500 | –
3 | LFLNTLSFV | – | binding peptides
4 | LYNLLIRCL | – | binding peptides
